Target: B-Raf (V600E)-kinase (Homo sapiens (Human), UniProt P15056, V600E)
Assay: Kinase test B-Raf (V600E)
Assay type: biochemical
Conditions: 1 h preincubation, 250 μM ATP
Experimental: In a dilution series 10 μL/well of test substance solution are placed in a multiwell plate. The dilution series is selected so that generally a range of concentrations of 2 μM to 0.119 nM or 0.017 nM is covered. If necessary the initial concentration of 2 μM is changed to 50 μM, 10 μM or 0.4 μM or 0.2857 μM and further dilution is carried out accordingly. The final concentration of DMSO is 5%. 10 μL/well of the B-Raf (V600E)-kinase solution are pipetted in (containing 0.5 ng B-Raf (V600E)-kinase (e.g. from Upstate) in 20 mM Tris-HCl pH 7.5, 0.1 mM EDTA, 0.1 mM EGTA, 0.286 mM sodium orthovanadate, 10% glycerol, 1 mg/mL bovine serum albumin, 1 mM dithiothreitol) and the mixture is incubated for 1 h at RT under with shaking. The kinase reaction is started by the addition of 20 μL/well ATP solution [final concentration: 250 μM ATP, 30 mM Tris-HCl pH 7.5, 0.02% Brij, 0.2 mM sodium orthovanadate, 10 mM magnesium acetate, 0.1 mM EGTA, phosphatase cocktail (Sigma, #P2850, dilution recommended by the manufacturer)] and 10 μL/well MEK1 solution [containing 50 ng biotinylated MEK1 (prepared from purified MEK1 according to standard procedure, e.g. with EZ-Link Sulpho-NHS-LC-Biotin reagent, Pierce, #21335)] and carried out for 60 min at RT with constant shaking. The reaction is stopped by the addition of 12 μL/well of a 100 mM EDTA solution and incubation is continued for a further 5 min. 55 μL/well of the reaction solution are transferred into a streptavidin-coated plate (e.g. Streptawell HighBond, Roche, #11989685001) and shaken gently for 1 h at RT, in order to bind biotinylated MEK1 to the plate. After elimination of the liquid the plate is washed five times with 200 μL/well of 1×PBS and 100 μL/well solution of primary antibody plus europium-labelled secondary antibody [Anti Phospho-MEK (Ser217/221), Cell Signaling, #9121 and Eu-N1 labelled goat-anti-rabbit antibody, Perkin Elmer, #AD0105] is added, the primary antibody is diluted 1:2000 and the secondary antibody is diluted to 0.4-0.5 μg/mL in Delfia Assay Buffer (Perkin Elmer, #1244-111). After 1 h shaking at RT the solution is poured away and washed five times with 200 μL/well Delfia Wash Buffer (Perkin Elmer, #4010-0010/#1244-114). After the addition of 200 μL/well Enhancement Solution (Perkin Elmer, #4001-0010/#1244-105) the mixture is shaken for 10 min at RT and then measured in a Wallac Victor using the program “Delfia Time Resolved Fluorescence (Europium)”. IC50 values are obtained from these dosage-activity curves using a software program (GraphPadPrizm).

Chain of B-Raf (V600E)-kinase (P15056 whole entry V600E): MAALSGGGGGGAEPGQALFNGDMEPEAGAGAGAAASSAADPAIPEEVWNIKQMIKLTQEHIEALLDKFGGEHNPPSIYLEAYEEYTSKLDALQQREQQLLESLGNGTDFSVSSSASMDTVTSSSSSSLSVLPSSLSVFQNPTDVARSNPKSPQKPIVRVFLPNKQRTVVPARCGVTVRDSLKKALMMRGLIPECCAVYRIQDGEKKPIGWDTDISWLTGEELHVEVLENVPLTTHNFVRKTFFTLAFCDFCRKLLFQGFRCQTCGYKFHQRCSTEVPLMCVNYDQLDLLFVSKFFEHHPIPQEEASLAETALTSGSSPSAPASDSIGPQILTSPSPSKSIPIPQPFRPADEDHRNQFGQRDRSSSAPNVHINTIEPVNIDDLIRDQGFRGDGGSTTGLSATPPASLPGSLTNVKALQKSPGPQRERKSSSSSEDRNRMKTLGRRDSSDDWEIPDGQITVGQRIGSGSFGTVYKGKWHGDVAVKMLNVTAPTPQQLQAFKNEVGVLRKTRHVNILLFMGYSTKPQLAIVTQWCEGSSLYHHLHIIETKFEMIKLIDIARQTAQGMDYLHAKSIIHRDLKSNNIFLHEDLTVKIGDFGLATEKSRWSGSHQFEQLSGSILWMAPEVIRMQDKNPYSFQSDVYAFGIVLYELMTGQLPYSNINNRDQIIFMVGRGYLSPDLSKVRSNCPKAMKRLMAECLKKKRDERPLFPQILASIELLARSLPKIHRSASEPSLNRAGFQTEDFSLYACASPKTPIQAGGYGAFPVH

SMILES | IC50
Cc1ccc(C(=O)Nc2cc(C(F)(F)F)ccn2)cc1-n1cc(-c2cncc(NC3CCN(C)C3)c2)nn1 (centres unmarked) [I-63] | 6 nM
Cc1ccc(C(=O)Nc2cc(C(F)(F)F)ccn2)cc1-n1cc(-c2cncc(N3CCCCC3)c2)nn1 [I-64] | 69 nM
Cc1ccc(C(=O)Nc2cc(C(F)(F)F)ccn2)cc1-n1cc(-c2cncc(N(C)CCN3CCCC3)c2)nn1 [I-65] | 9 nM
Cc1ccc(C(=O)Nc2cc(C(F)(F)F)ccn2)cc1-n1cc(-c2cncc(NC3CC3)c2)nn1 [I-66] | 44 nM
Cc1ccc(C(=O)Nc2cc(C(F)(F)F)ccn2)cc1-n1cc(-c2cncc(N3CCCOCC3)c2)nn1 [I-67] | 24 nM
Cc1ccc(C(=O)Nc2cc(C(F)(F)F)ccn2)cc1-n1cc(-c2cncc(N(C)C3CCOC3)c2)nn1 (centres unmarked) [I-68] | 7 nM
Cc1ccc(C(=O)Nc2cc(C(F)(F)F)ccn2)cc1-n1cc(-c2cncc(N(C)C3CCOCC3)c2)nn1 [I-69] | 30 nM
Cc1ccc(C(=O)Nc2cc(C(F)(F)F)ccn2)cc1-n1cc(-c2cncc(NC3CCOC3)c2)nn1 (centres unmarked) [I-70] | 11 nM
Cc1ccc(C(=O)Nc2cc(C(F)(F)F)ccn2)cc1-n1cc(-c2cncc(N3C[C@@H]4C[C@H]3CN4)c2)nn1 [I-71] | 4 nM
Cc1ccc(C(=O)Nc2cc(C(F)(F)F)ccn2)cc1-n1cc(-c2cncc(N3CCOCC3)c2)nn1 [I-72] | 12 nM
COCCN(C)c1cncc(-c2cn(-c3cc(C(=O)Nc4cc(C(F)(F)F)ccn4)ccc3C)nn2)c1 [I-73] | 34 nM
Cc1ccc(C(=O)Nc2cc(C(F)(F)F)ccn2)cc1-n1cc(-c2cncc(N(C)C3CCN(C)CC3)c2)nn1 [I-74] | 12 nM
Cc1ccc(C(=O)Nc2cc(C(F)(F)F)ccn2)cc1-n1cc(-c2cncc(N3CCC(N(C)C)C3)c2)nn1 (centres unmarked) [I-75] | 7 nM
Cc1ccc(C(=O)Nc2cc(C(F)(F)F)ccn2)cc1-n1cc(-c2cncc(NC3CCN(C)CC3)c2)nn1 [I-76] | 21 nM
Cc1ccc(C(=O)Nc2cc(C(F)(F)F)ccn2)cc1-n1cc(-c2cncc(N3CCNCC3)c2)nn1 [I-77] | 5 nM
Cc1ccc(C(=O)Nc2cc(C(F)(F)F)ccn2)cc1-n1cc(-c2cncc(N(C)C3CCN(C)C3)c2)nn1 (centres unmarked) [I-78] | 4 nM
Cc1ccc(C(=O)Nc2cc(C(F)(F)F)ccn2)cc1-n1cc(-c2cncc(N3CC[C@H](N(C)C)C3)c2)nn1 [I-79] | 9 nM
Cc1ccc(C(=O)Nc2cc(C(F)(F)F)ccn2)cc1-n1cc(-c2cncc(N3CC[C@@H](N(C)C)C3)c2)nn1 [I-80] | 15 nM
Cc1ccc(C(=O)Nc2cc(C(F)(F)F)ccn2)cc1-n1cc(-c2cncc(NC3CCOCC3)c2)nn1 [I-81] | 10 nM
Cc1ccc(C(=O)Nc2cc(C(F)(F)F)ccn2)cc1-n1cc(-c2cncc(N3C[C@@H]4C[C@H]3CN4C)c2)nn1 [I-82] | 6 nM

SMILES | IC50
Cc1ccc(C(=O)Nc2cc(C(F)(F)F)ccn2)cc1-n1cc(-c2cncc(N3CCN(C)CC3)c2)nn1 [I-83] | 7 nM
Cc1ccc(C(=O)Nc2cc(C(F)(F)F)ccn2)cc1-n1cc(-c2cncc(N3CCCC3)c2)nn1 [I-84] | 7 nM
Cc1ccc(C(=O)Nc2cc(C(F)(F)F)ccn2)cc1-n1cc(-c2cncc(NCCN(C)C)c2)nn1 [I-85] | 10 nM
Cc1ccc(C(=O)Nc2cc(C(F)(F)F)ccn2)cc1-n1cc(-c2cncc(N(C)CCN(C)C)c2)nn1 [I-86] | 10 nM
CCN1CCN(c2cncc(-c3cn(-c4cc(C(=O)Nc5cc(C(F)(F)F)ccn5)ccc4C)nn3)c2)CC1 [I-87] | 7 nM
Cc1ccc(C(=O)Nc2cc(C(F)(F)F)ccn2)cc1-n1cc(-c2cncc(N3CCN(C(C)C)CC3)c2)nn1 [I-88] | 8 nM
Cc1ccc(C(=O)Nc2cc(C(C)(C)C)on2)cc1-n1cc(-c2cncc(N3CCC(N4CCN(C)CC4)C3)c2)nn1 (centres unmarked) [I-89] | 6 nM
Cc1ccc(C(=O)Nc2cc(C(C)(C)C)on2)cc1-n1cc(-c2cncc(N3CCC(N4CCN(C)CC4)CC3)c2)nn1 [I-90] | 10 nM
Cc1ccc(C(=O)Nc2cc(C(C)(C)C)on2)cc1-n1cc(-c2cncc(N3CCCN(C)CC3)c2)nn1 [I-91] | 8 nM
Cc1ccc(C(=O)Nc2cc(C(C)(C)C)on2)cc1-n1cc(-c2cncc(N3CCC(N4CCN(C(C)C)CC4)C3)c2)nn1 (centres unmarked) [I-92] | 8 nM
Cc1ccc(C(=O)Nc2cc(C(C)(C)C)on2)cc1-n1cc(-c2cncc(N3CC(N4CCN(C)CC4)C3)c2)nn1 [I-93] | 8 nM
Cc1ccc(NC(=O)c2cc(C(F)(F)F)ccn2)cc1-n1cc(-c2cncc(N3CCOCC3)c2)nn1 [II-1] | 9 nM
Cc1ccc(NC(=O)c2cc(CNC(C)C)c(C(C)(C)C)o2)cc1-n1cc(-c2cncc(N3CCOCC3)c2)nn1 [II-2] | 14 nM
Cc1ccc(NC(=O)c2ccc(C(C)(C)C)o2)cc1-n1cc(-c2cncc(N3CCN(C(C)(C)C)CC3)c2)nn1 [II-3] | 3 nM
Cc1ccc(NC(=O)c2cc(C(C)(C)C)nn2C)cc1-n1cc(-c2cncc(N3CCOCC3)c2)nn1 [II-4] | 11 nM
Cc1ccc(NC(=O)c2cc(C(C)(C)C)on2)cc1-n1cc(-c2cncc(N3CCOCC3)c2)nn1 [II-5] | 8 nM
Cc1ccc(NC(=O)c2cc(C(C)(C)C)nn2C)cc1-n1cc(-c2cncc(N3CCN(C)CC3)c2)nn1 [II-6] | 8 nM
Cc1ccc(NC(=O)c2cc(C(F)(F)F)ccn2)cc1-n1cc(-c2cncc(N3CCN(C)CC3)c2)nn1 [II-7] | 4 nM
Cc1ccc(NC(=O)c2cc(C(C)(C)C)on2)cc1-n1cc(-c2cncc(N3CCN(C)CC3)c2)nn1 [II-8] | 5 nM
Cc1ccc(NC(=O)c2cc(C)n(C(C)(C)C)n2)cc1-n1cc(-c2cncc(N3CCOCC3)c2)nn1 [II-9] | 18 nM

SMILES | IC50
Cc1ccc(NC(=O)c2cc(CN3CCCC3)c(C(C)(C)C)o2)cc1-n1cc(-c2cncc(N3CCOCC3)c2)nn1 [II-10] | 11 nM
Cc1ccc(NC(=O)c2ccc(C(C)(C)C)s2)cc1-n1cc(-c2cncc(N3CCOCC3)c2)nn1 [II-11] | 10 nM
Cc1ccc(NC(=O)c2cc(C(C)(C)C)oc2C)cc1-n1cc(-c2cncc(N3CCOCC3)c2)nn1 [II-12] | 15 nM
Cc1ccc(NC(=O)c2ccc(C(C)(C)C)o2)cc1-n1cc(-c2cncc(N3CCOCC3)c2)nn1 [II-13] | 9 nM
CCN1CCN(c2cncc(-c3cn(-c4cc(NC(=O)c5ccc(C(C)(C)C)o5)ccc4C)nn3)c2)CC1 [II-14] | 3 nM
Cc1ccc(NC(=O)c2ccc(C(C)(C)C)o2)cc1-n1cc(-c2cncc(N3CCN(C)CC3)c2)nn1 [II-15] | 2 nM
Cc1ccc(NC(=O)c2ccc(C(C)(C)C)o2)cc1-n1cc(-c2cncc(N3CCN(CC4CC4)CC3)c2)nn1 [II-16] | 2 nM
COCCCN1CCN(c2cncc(-c3cn(-c4cc(NC(=O)c5ccc(C(C)(C)C)o5)ccc4C)nn3)c2)CC1 [II-17] | 1 nM
C=CCN1CCN(c2cncc(-c3cn(-c4cc(NC(=O)c5ccc(C(C)(C)C)o5)ccc4C)nn3)c2)CC1 [II-18] | 5 nM
Cc1ccc(NC(=O)c2ccc(C(C)(C)C)o2)cc1-n1cc(-c2cncc(N3CCN(CC(C)C)CC3)c2)nn1 [II-19] | 5 nM
Cc1ccc(NC(=O)c2ccc(C(C)(C)C)o2)cc1-n1cc(-c2cncc(N3CCNCC3)c2)nn1 [II-21] | 1 nM
CCOCCN1CCN(c2cncc(-c3cn(-c4cc(NC(=O)c5ccc(C(C)(C)C)o5)ccc4C)nn3)c2)CC1 [II-22] | 7 nM
Cc1ccc(NC(=O)c2ccc(C(C)(C)C)s2)cc1-n1cc(-c2cncc(N3CCN(C(=O)OC(C)(C)C)CC3)c2)nn1 [II-23] | 141 nM
CCCN1CCN(c2cncc(-c3cn(-c4cc(NC(=O)c5ccc(C(C)(C)C)s5)ccc4C)nn3)c2)CC1 [II-25] | 9 nM
CCN1CCN(c2cncc(-c3cn(-c4cc(NC(=O)c5ccc(C(C)(C)C)s5)ccc4C)nn3)c2)CC1 [II-27] | 8 nM
CCOCCN1CCN(c2cncc(-c3cn(-c4cc(NC(=O)c5ccc(C(C)(C)C)s5)ccc4C)nn3)c2)CC1 [II-28] | 10 nM
Cc1ccc(NC(=O)c2ccc(C(C)(C)C)s2)cc1-n1cc(-c2cncc(N3CCN(C(C)(C)C)CC3)c2)nn1 [II-29] | 10 nM
Cc1ccc(NC(=O)c2ccc(C(C)(C)C)s2)cc1-n1cc(-c2cncc(N3CCN(CC4CC4)CC3)c2)nn1 [II-31] | 8 nM
Cc1ccc(NC(=O)c2cc(C)n(C(C)(C)C)n2)cc1-n1cc(-c2cncc(N3CCN(C4CC4)CC3)c2)nn1 [II-34] | 31 nM

From US9290507B2, “B-RAF kinase inhibitors” (Boehringer Ingelheim International GmbH, priority 2010, dated 2016)
